This note sets out measurements from US20210038577A1, “THIOREDOXIN REDUCTASE INHIBITORS FOR USE IN THE TREATMENT OF CANCER” (Cinda Pharma AB, priority 2018, published 2021).

For one data set, the target named is T1, recombinant rat TrxR (Rattus norvegicus, UniProt O89049).
T1 sequence (O89049 1-499): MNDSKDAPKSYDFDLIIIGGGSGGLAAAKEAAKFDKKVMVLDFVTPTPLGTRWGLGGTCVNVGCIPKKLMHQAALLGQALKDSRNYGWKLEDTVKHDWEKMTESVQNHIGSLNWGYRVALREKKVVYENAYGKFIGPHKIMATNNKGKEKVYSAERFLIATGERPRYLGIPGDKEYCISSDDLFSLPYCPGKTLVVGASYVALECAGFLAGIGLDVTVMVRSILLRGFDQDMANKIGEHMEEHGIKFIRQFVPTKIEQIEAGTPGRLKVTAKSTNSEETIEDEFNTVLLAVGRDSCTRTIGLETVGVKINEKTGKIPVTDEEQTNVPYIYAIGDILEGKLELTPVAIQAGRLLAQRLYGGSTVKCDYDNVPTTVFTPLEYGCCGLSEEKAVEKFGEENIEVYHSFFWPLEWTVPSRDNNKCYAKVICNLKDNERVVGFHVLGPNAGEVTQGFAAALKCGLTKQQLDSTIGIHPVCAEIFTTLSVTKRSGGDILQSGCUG
Description: Sec-dependent TrxR activity (DTNB assay). Type of data set: biochemical. The note with it: binding time of 4 hours (FIG. 1A). How it is done:
Sec-dependent TrxR activity was assessed using a 5′-5-dithiobis-(2-nitrobenzoic acid) (DTNB) assay. Multiple concentrations of compounds were incubated for various time points in reaction buffer, consisting of 50 mM Tris pH 7.5 with 2 mM EDTA and 0.1 mg/mL bovine serum albumin, and containing recombinant rat TrxR and 250 μM NADPH. 2.5 mM DTNB was added to each well and TNB^− production was followed at OD412. […] The amino acid sequence of rat TrxR1 is available in Gen Bank, with accession number AAF32362.1.

Data set [1] has as its system Tregs in TM00098 patient-derived xenografts. Description: Tumor infiltrated Treg levels by flow cytometry, TM00098 PDX in Hu-CD34-NSG mice. The note with it: day 41, both donors, versus vehicle / other treatment. The data set is classed as in vivo. The protocol:
Female NSG mice were implanted with human CD34+ hematopoietic stem cells from multiple donors and the level of human CD45+ cells were measured in the peripheral blood 12 weeks post engraftment. Mice with >25% human CD45+ cells in the peripheral blood were determined to have a humanized immune system (Hu-CD34-NSG™) mice and were enrolled into the study. The Hu-CD34-NSG mice were implanted with TM00098 patient-derived xenografts (PDX) subcutaneously on the right flank. The TM00098 PDX cancer cells originate from a primary tumor of a patient suffering from a grade 3 TNBC invasive ductal carcinoma. […] Tumor volume was measured using a digital caliper two times a week for the duration of the study. […] Cell populations was determined by electronic gating (P1=total leukocytes) on the basis of forward versus side scatter. […] The percentage of Tregs of CD45+ cells were calculated. […] Statistical significance (p<0.05) was determined using a Mann-Whitney test.
(A flow cytometer gives signals particle by particle.)

For the molecule `COc1ccc([N+](=O)[O-])c(S(=O)(=O)c2ccc(Cl)cc2)n1` [OT-1000, 2-((4-Chlorophenyl)sulfonyl)-6-methoxy-3-nitropyridine], the “potency relative to Iniparib, TrxR C-terminal activity” value on recombinant rat TrxR is 1000 fold.
Take `CCCCCCCCS(=O)(=O)c1nc(OC)ccc1[N+](=O)[O-]` [OT-1096, 6-methoxy-3-nitro-2-(octylsulfonyl)pyridine]: the “levels of tumor infiltrated Tregs (% Tregs of CD45+ cells)” value in data set [1] is reported as “decreased”.
